Our source for the TGI and GI50 values is PubChem BioAssay (NCI).

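Following 48 hours of exposure in 96-well plates, responses at five concentrations were used to interpolate endpoints linearly. Abbreviation: GI50, concentration required for 50% inhibition of growth. TGI: total growth inhibition.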 A value given as a limit tells only on which side of the number the result lay.

What all share (assay): inhibition of tumour cell growth, NCI panel, 48 h
In assay [1] the test system is UACC-257 melanoma.
For assay [2], the system named is NCI-H23 lung.
The subject of assay [3] is HS 578T breast.
Assay [4] relates to HT29 colon.
Assay [5] deals with NCI-H226 lung.
Assay [6] has as its system KM12 colon.
Assay [7] relates to SR leukemia.
The test system of assay [8] is OVCAR-8 ovarian.
The subject of assay [9] is SNB-19 CNS.
Assay [10] has as its system A549 NSCLC.

Take `O=C1CCC2(c3ccc(Cl)cc3)Nc3ccncc3N12` (stereo not drawn): the TGI in [1], in [2], in assay [3], in assay [4], in assay [5] and in assay [6] was above 10 µM throughout. Besides, the TGI in [7], in assay [8], in assay [9] and in assay [10] was above 10 µM in each case.

`O=C(/C=C/c1ccc(O)cc1)c1ccc(O)cc1`: the TGI in assay [1] was 74.7 µM; in assay [2] it was 62.6 µM; in assay [3], above 67.5 µM; in assay [4] it was 48.5 µM; in assay [5], 27.2 µM; in assay [6] it was 19.8 µM. Further, the TGI in [7] was 51.3 µM; in assay [8] it was 41.6 µM; in [9], above 78.2 µM; in [10] it was above 100 µM.

For `CCCCCCCCCCn1cc[n+](C)c1`, the GI50 in assay [1] is 1.81 µM; in assay [2] it was 0.648 µM; in assay [3], 2.36 µM; in assay [4], 2.23 µM; in assay [5], 2.43 µM; in [6], 1.57 µM. The GI50 in assay [7] was 0.163 µM; in assay [8], 1.67 µM; in [9] it was 3.96 µM; in [10] it was 3.79 µM. Further, the TGI in [1] is 9.92 µM; in [2] it was 28 µM; in assay [3], 14 µM; in [4] it was 19.2 µM; in assay [5], 47 µM; in [6] it was 5.75 µM. The TGI in assay [7] is 4.16 µM; in assay [8], 15.8 µM; in assay [9], 32.9 µM; in assay [10], 22.5 µM.

As for `COc1ccc2nc(NC(=O)CSc3nnc4n3S(=O)(=O)c3ccccc3N4c3ccccc3)sc2c1`, the GI50 in assay [1], in assay [2], in assay [3], in assay [4], in assay [5] and in assay [6] was above 100 µM each time. Moreover, the GI50 in assay [7] is 47.4 µM; in assay [8], above 100 µM; in assay [9] it was above 100 µM; in [10], above 100 µM. Further, the TGI in assay [1], in assay [2], in assay [3], in [4], in assay [5] and in [6] was above 100 µM in each case. Moreover, the TGI in assay [7], in assay [8], in assay [9] and in assay [10] was above 100 µM in each case.

On to `COC[C@H]1Cn2cc(-c3nc(Nc4ccnn4C)ncc3C)nc2C(=O)N1Cc1ccc(F)c(F)c1`, for which the GI50 in [1] was 0.0352 µM; in assay [2] it was 0.181 µM; in assay [3], 18.5 µM; in [4] it was 0.0436 µM; in [5], 25.8 µM; in assay [6], 0.586 µM. The GI50 in [7] is above 100 µM; in assay [8], 98.2 µM; in [9] it was above 100 µM; in assay [10], 3.23 µM. For the same compound, the TGI in assay [1], in [2], in assay [3], in assay [4], in [5] and in assay [6] was above 100 µM each time. For the same compound, the TGI in assay [7], in assay [8], in assay [9] and in [10] was above 100 µM in each case.

For `COc1cc(/C(C#N)=C/c2nc3c(N4CCOCC4)nc(Cl)nc3n2C)cc(OC)c1OC`, the GI50 is 2.45 µM in assay [1]; below 0.01 µM in assay [2]; below 0.01 µM in [3]; below 0.01 µM in [4]; below 0.01 µM in assay [6]; below 0.01 µM in [7]. The GI50 in [8], in assay [9] and in assay [10] was below 0.01 µM in each case. Moreover, the TGI in assay [1] was above 55.2 µM; in assay [2], above 35.4 µM; in [3] it was above 23.7 µM; in [4], 3.42 µM; in assay [5], 3.03 µM; in assay [6] it was 4.36 µM. For the same compound, the TGI in assay [8] was 31.3 µM; in assay [9] it was above 100 µM; in [10] it was above 45.5 µM.

Turning to `Nc1c(C(=O)Nc2cccc(C(F)(F)F)c2)sc2nc3c(cc12)CCCCC3`, the GI50 in assay [1] was 3.64 µM; in [2], 1.72 µM; in [3], 3.8 µM; in assay [4], 7.06 µM; in [5], 1.57 µM; in [6], 5.33 µM. Also, the GI50 in assay [7] is 4.03 µM; in [8], 3.49 µM; in [9] it was 4.24 µM; in [10], 2.25 µM. Further, the TGI in [1] is 37.4 µM; in assay [2] it was 10.9 µM; in assay [3] it was 30.4 µM; in assay [4], above 100 µM; in [5], 16 µM; in assay [6], above 100 µM. For the same compound, the TGI in [7] was determined as 21.7 µM; in assay [8] it was 19.8 µM; in assay [9], 19.8 µM; in assay [10] it was 11 µM.
